Experimental data: publication PMC12652428, “In Vitro and In Silico Evaluation of a Novel Multifunctional Cyclic Peptide with Antioxidant, Tyrosinase-Inhibitory, and Extracellular Matrix-Modulating Activities” (International Journal of Molecular Sciences, 2025)
Where a SMILES comes first, the peptide text is derived from it.

Key:
[1] = DPPH radical-scavenging assay
Procedure: To assess the antioxidant activity of the test samples, serial dilutions of the synthesized peptides were prepared, using ascorbic acid as a positive control. Each reaction mixture consisted of 12.5 μL of the sample solution, 50 μL of ethanol, and 62.5 μL of 0.10 mM DPPH solution. The mixtures were incubated for 30 min at 4 °C in the dark. After the reaction, the absorbance was measured at 520 nm using a multimode microplate reader. The free radical-scavenging activity (%) was calculated using Equation (2).
Radical-scavenging activity (%):(2) 100−b−b^′/a−a^′×100
(§1) a: Absorbance after reaction of stock solution.
(§2) b: Absorbance after reaction of sample solution.
a′, b′: Absorbance measured by substituting the buffer for 0.10 mM DPPH.

MMP-1 = assay: UV-induced MMP-1 expression inhibition (ELISA) in human dermal fibroblasts CCD-986sk; type: cell-based
Procedure: To evaluate the inhibitory effect on MMP-1 expression, TGF-β1 (10 ng/mL) was used as the positive control. CCD-986sk cells were seeded into 24-well culture plates at a density of 1.5 × 10^4 cells/well and cultured for 24 h in IMDM supplemented with 10% FBS and 1% penicillin–streptomycin. The cells were then incubated in serum-free IMDM for 6 h to induce starvation, washed with 1 mL of DPBS, and irradiated with UV (5 J/cm^2). UV irradiation (5 J/cm^2) was performed under non-cytotoxic conditions previously reported to induce MMP-1 expression. The test samples were diluted in serum-free IMDM, applied to the cells, and incubated for 48 h.
MMP-1 Expression Inhibition (%):(4) 100−b/a×100
(§3) a: Expression of the corrected untreated group.
(§4) b: Expression of the corrected sample treatment group.
(§5) Protein content was measured using a Pierce BCA Protein Assay kit. After cell culture, 20 μL of the culture medium was mixed with 200 μL of the Pierce BCA Protein Assay reagent mixture and incubated at 37 °C for 30 min. The absorbance was then measured at 570 nm. The protein concentration was determined using an Albumin Standard as a reference.

mushroom tyrosinase = assay: Tyrosinase inhibition assay; type: biochemical
Procedure: To assess tyrosinase inhibitory activity, serial dilutions of the synthesized peptide and the positive control, β-arbutin, were prepared. In a 96-well plate, 10 μL of sample solution was mixed with 110 μL of 0.10 M sodium phosphate buffer (pH 6.5), followed by the addition of 10 μL of mushroom tyrosinase solution (1500 U/mL) and 20 μL of 1.50 mM L-tyrosine. The reaction mixture was then incubated at 37 °C for 10 min. The absorbance was measured at an appropriate wavelength (475 nm) using a microplate reader and the percentage of tyrosinase inhibition was calculated using Equation (3).
Tyrosinase inhibition (%):(3) 100−b−b^′/a−a^′×100
as §1, §2
a′, b′: Absorbance measured by substituting the buffer for mushroom tyrosinase.

type I procollagen = assay: Type I procollagen expression (ELISA) in human fibroblasts; type: cell-based
Procedure: ELISA was performed using a Type I Procollagen C-Peptide EIA Kit. Antibody-POD Conjugate solution (100 μL/well) was dispensed into the provided well strips, followed by the addition of 20 μL/well of standard solution or sample. After mixing, the plates were incubated at 37 °C for 3 h. Following incubation, the supernatants were discarded and wells were washed four times with wash buffer. Subsequently, 100 μL/well of Substrate Solution (TMBZ) was added and incubated at room temperature for 15 min, after which 100 μL/well of stop solution was added to terminate the reaction. Absorbance was measured at 450 nm using a multiplate reader. The expression levels of type I procollagen were compared and stimulation rate was calculated according to Equation (5).
Type I Procollagen Expression Promotion Rate (%):(5) 100−b/a×100
as §3, §4, §5

Row | tyrosinase inhibition rate (mushroom tyrosinase; 800 μg/mL, L-tyrosine substrate, pH 6.5, 37 °C, 10 min, 475 nm) [%] | tyrosinase inhibition, concentration dependence (mushroom tyrosinase; 12.50 to 800 μg/mL, p < 0.05) | IC50 (mushroom tyrosinase; n = 3, L-tyrosine substrate, pH 6.5, 37 °C, 10 min, 475 nm, molar value printed beside 104.2 µg/mL) [µM] | tyrosinase inhibition IC50 (mushroom tyrosinase; n = 3, L-tyrosine substrate, pH 6.5, 37 °C, 10 min, 475 nm, tested 12.50 to 800 μg/mL) [µg/mL] | SMILES | DPPH radical scavenging rate ([1]; 200 μg/mL, 30 min at 4 °C in the dark, 520 nm) [%] | DPPH scavenging, concentration dependence ([1]; 3.13 to 200 μg/mL, p < 0.05) | DPPH radical scavenging activity ([1]; concentrations above 25 μg/mL, 30 min at 4 °C in the dark, 520 nm) | inhibition of MMP-1 expression (MMP-1; 400 μg/mL, UV 5 J/cm^2, 48 h, CCD-986sk, ELISA, vs UV-treated control) [%] | MMP-1 inhibition compared with TGF-β1 (MMP-1; 400 µg/mL, same experimental conditions, TGF-β1 10 ng/mL) | UV-induced MMP-1 expression (MMP-1; 200–400 μg/mL, vs UV-treated control, p < 0.05) | MMP-1 expression inhibition IC50 (MMP-1; n = 5, UV 5 J/cm^2, 48 h, CCD-986sk, ELISA) [µg/mL] | tyrosinase inhibition compared with β-arbutin (mushroom tyrosinase; comparable concentrations) | type I procollagen expression, higher than positive control TGF-β1 (type I procollagen; 400 μg/mL, compared with TGF-β1) | increase in type I procollagen expression vs untreated control (type I procollagen; 400 μg/mL, human fibroblasts, ELISA (Procollagen Type I C-Peptide EIA), p < 0.05) | type I procollagen increase compared with TGF-β1 (type I procollagen; 400 µg/mL, same experimental conditions) | type I procollagen expression (type I procollagen; 100–400 μg/mL, p < 0.05) | tyrosinase inhibition IC50 (positive control) (mushroom tyrosinase; tested 31.25 to 500 μg/mL, L-tyrosine substrate, pH 6.5, 37 °C, 10 min, 475 nm) [µg/mL]
1 | 97.79 | concentration-dependent inhibition | 184 ± 9.4 | 104.2 ± 5.3 | N=C(N)NCCC[C@@H]1NC(=O)[C@H](CO)NC(=O)CNC(=O)[C@H](Cc2ccc(O)cc2)NC(=O)[C@H](CS)NC1=O [CR5, cyclic CYGSR] (cyclo(CYGSR)) | 83.18 | concentration-dependent scavenging effects | more than 50% | 73.55 | stronger efficacy than TGF-β1 | significantly reduced MMP-1 expression | 261.3 ± 12.0 | stronger tyrosinase inhibition than β-arbutin | approximately 30.12% | approximately 44.68% | stronger efficacy than TGF-β1 | promoted type I procollagen expression in a concentration-dependent manner | 
2 |  |  |  |  | OC[C@H]1O[C@@H](Oc2ccc(O)cc2)[C@H](O)[C@@H](O)[C@@H]1O [β-arbutin, reference compound] |  |  |  |  |  |  |  |  |  |  |  |  | 160.12
